Source: patent publication US10916331B2, “Predicting drug-target interactions and uses for drug repositioning and repurposing” (GEORGETOWN UNIVERSITY, priority 2015, dated 2021)
pKd: −log10 of the molar value.

Experiments:
[1] = target: T1, ABL1(E255K)-phosphorylated (Homo sapiens, UniProt P00519, E255K); experiment: Kinomescan active site-directed competition binding assay; conditions: MBZ at 10 μM, lower = stronger hit, read-out: Percent Control at 10 μM
T1 construct: purchased Discoverx (Kinomescan); host or cells: E. coli BL21-derived host (T7 phage) or HEK-293
Procedure: (§1) Kinase assays were performed using Kinomescan, by Discoverx, CA, USA and Caliper LabChip 3000 by Caliper Life sciences, USA as described previously. The determination of MBZ thermodynamic binding affinities (Kd) to kinase targets predicted by RepurposeVS was performed by using active site-directed competition binding. Kinase-tagged T7 phage strains were grown in parallel in 24-well blocks in an E. coli host derived from the BL21 strain. E. coli bacteria were grown to log-phase and infected with T7 phage from a frozen stock (multiplicity of infection=0.4) and incubated with shaking at 32° C. until lysis (90-150 minutes). The lysates were centrifuged (6,000×g) and filtered (0.2 μm sieves) to remove cell debris. The remaining kinases were produced in HEK-293 cells and subsequently tagged with DNA for qPCR detection. […] The liganded beads were blocked with excess biotin and washed with blocking buffer (SeaBlock (Pierce), 1% BSA, 0.05% Tween 20, 1 mM DTT) to remove unbound ligand and to reduce non-specific phage binding. Binding reactions were assembled by combining kinases, control liganded affinity beads, and mebendazole in 1× binding buffer (20% SeaBlock, 0.17×PBS, 0.05% Tween 20, 6 mM DTT). Mebendazole was prepared as 40× stocks in 100% DMSO and directly diluted into the assay. All reactions were performed in polypropylene 384-well plates in a final volume of 0.04 ml. The assay plates were incubated at room temperature with shaking for 1 hour and the affinity beads were washed with wash buffer (lx PBS, 0.05% Tween 20). […] The kinase concentration in the eluates was measured by qPCR. […] The amount of kinase captured in test versus control samples were measured by using a quantitative, precise and ultra-sensitive qPCR method that detects the associated DNA label. Using (13), the primary screen binding interactions are reported as ‘% Ctrl’ (Percent kinase remaining activity), where lower numbers indicate stronger hits. In a similar manner, binding constants (Kd) for mebendazole-kinase interactions are calculated by measuring the amount of kinase captured as a function of the mebendazole concentration in a dose response manner. […] Binding constants (Kd) were calculated with a standard dose-response curve (drug dose (x-axis)−qPCR signal (y-axis)) using the Hill equation in (14) with the Hill Slope set to −1.

[2] = target: T2, ABL1(T315I)-phosphorylated (Homo sapiens, UniProt P00519, T315I); experiment: as above; conditions: MBZ at 10 μM, lower = stronger hit, read-out: Percent Control at 10 μM
T2 construct: purchased Discoverx (Kinomescan); host or cells: E. coli BL21-derived host (T7 phage) or HEK-293
Procedure: as §1

ABL1-nonphosphorylated = target: T3, ABL1-nonphosphorylated (Homo sapiens, UniProt P00519); experiment: as above; conditions: MBZ at 10 μM, lower = stronger hit, read-out: Percent Control at 10 μM
T3 construct: purchased Discoverx (Kinomescan); host or cells: E. coli BL21-derived host (T7 phage) or HEK-293
Procedure: as §1

ABL1-phosphorylated = target: T4, ABL1-phosphorylated (Homo sapiens, UniProt P00519); experiment: as above
T4 construct: purchased Discoverx (Kinomescan); host or cells: E. coli BL21-derived host (T7 phage) or HEK-293
Procedure: as §1

CDK7 = target: T5, CDK7 (Homo sapiens, UniProt P50613); experiment: as above
T5 construct: purchased Discoverx (Kinomescan); host or cells: E. coli BL21-derived host (T7 phage) or HEK-293
T5 sequence (P50613 whole entry): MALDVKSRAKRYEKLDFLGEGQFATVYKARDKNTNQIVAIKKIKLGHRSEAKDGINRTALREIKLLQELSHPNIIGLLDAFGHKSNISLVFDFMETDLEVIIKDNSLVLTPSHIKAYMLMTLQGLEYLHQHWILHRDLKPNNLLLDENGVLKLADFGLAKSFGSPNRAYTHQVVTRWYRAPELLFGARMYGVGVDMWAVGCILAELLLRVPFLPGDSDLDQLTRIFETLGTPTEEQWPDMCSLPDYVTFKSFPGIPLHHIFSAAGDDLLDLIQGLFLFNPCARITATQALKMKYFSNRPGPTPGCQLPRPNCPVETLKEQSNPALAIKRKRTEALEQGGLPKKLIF
Procedure: as §1

CSNK1D = target: T6, CSNK1D (Homo sapiens, UniProt P48730); experiment: as above; conditions: MBZ at 10 μM, lower = stronger hit, read-out: Percent Control at 10 μM
T6 construct: purchased Discoverx (Kinomescan); host or cells: E. coli BL21-derived host (T7 phage) or HEK-293
T6 sequence (P48730 whole entry): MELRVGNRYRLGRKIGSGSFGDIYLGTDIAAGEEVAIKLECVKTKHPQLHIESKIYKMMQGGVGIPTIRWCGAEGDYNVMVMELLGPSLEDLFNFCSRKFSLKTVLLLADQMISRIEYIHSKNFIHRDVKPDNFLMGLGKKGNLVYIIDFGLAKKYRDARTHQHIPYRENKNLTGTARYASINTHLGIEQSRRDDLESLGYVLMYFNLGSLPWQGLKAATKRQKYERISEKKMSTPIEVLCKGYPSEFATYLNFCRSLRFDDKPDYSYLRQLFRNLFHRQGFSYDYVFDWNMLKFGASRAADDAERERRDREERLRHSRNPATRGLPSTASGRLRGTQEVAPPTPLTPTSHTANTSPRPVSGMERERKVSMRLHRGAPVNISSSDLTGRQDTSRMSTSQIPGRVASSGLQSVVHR
Procedure: as §1

DYRK1A = target: T7, DYRK1A (Homo sapiens, UniProt Q13627); experiment: as above; conditions: MBZ at 10 μM, lower = stronger hit, read-out: Percent Control at 10 μM
T7 construct: purchased Discoverx (Kinomescan); host or cells: E. coli BL21-derived host (T7 phage) or HEK-293
Procedure: as §1

DYRK1B = target: T8, DYRK1B (Homo sapiens, UniProt Q9Y463); experiment: as above
T8 construct: purchased Discoverx (Kinomescan); host or cells: E. coli BL21-derived host (T7 phage) or HEK-293
T8 sequence (Q9Y463 whole entry): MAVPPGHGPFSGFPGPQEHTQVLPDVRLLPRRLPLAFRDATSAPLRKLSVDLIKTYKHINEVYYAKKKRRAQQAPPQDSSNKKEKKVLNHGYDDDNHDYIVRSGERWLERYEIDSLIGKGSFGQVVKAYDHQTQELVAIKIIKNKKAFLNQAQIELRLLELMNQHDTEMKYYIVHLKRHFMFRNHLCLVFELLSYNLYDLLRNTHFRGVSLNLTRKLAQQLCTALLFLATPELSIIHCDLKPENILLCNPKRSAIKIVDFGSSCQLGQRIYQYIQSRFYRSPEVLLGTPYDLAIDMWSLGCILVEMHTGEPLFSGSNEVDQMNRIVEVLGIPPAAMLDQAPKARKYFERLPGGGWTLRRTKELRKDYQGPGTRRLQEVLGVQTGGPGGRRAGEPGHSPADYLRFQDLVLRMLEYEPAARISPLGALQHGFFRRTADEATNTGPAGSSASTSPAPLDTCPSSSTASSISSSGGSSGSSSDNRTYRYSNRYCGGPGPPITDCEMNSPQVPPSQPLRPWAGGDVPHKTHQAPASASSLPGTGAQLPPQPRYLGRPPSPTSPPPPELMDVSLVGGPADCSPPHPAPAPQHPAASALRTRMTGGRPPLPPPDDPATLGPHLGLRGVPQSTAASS
Procedure: as §1

GSK3B = target: T9, GSK3B (Homo sapiens, UniProt P49841); experiment: as above; conditions: MBZ at 10 μM, lower = stronger hit, read-out: Percent Control at 10 μM
T9 construct: purchased Discoverx (Kinomescan); host or cells: E. coli BL21-derived host (T7 phage) or HEK-293
Procedure: as §1

JAK3 = target: T10, JAK3 (Homo sapiens, UniProt P52333); experiment: as above; conditions: MBZ at 10 μM, lower = stronger hit, read-out: Percent Control at 10 μM
T10 construct: purchased Discoverx (Kinomescan); host or cells: E. coli BL21-derived host (T7 phage) or HEK-293
Procedure: as §1

JNK1 = target: T11, JNK1 (Homo sapiens, UniProt P45983); experiment: as above; conditions: MBZ at 10 μM, lower = stronger hit, read-out: Percent Control at 10 μM
T11 construct: purchased Discoverx (Kinomescan); host or cells: E. coli BL21-derived host (T7 phage) or HEK-293
Procedure: as §1

JNK2 = target: T12, JNK2 (Homo sapiens, UniProt P45984); experiment: as above
T12 construct: purchased Discoverx (Kinomescan); host or cells: E. coli BL21-derived host (T7 phage) or HEK-293
T12 sequence (P45984 whole entry): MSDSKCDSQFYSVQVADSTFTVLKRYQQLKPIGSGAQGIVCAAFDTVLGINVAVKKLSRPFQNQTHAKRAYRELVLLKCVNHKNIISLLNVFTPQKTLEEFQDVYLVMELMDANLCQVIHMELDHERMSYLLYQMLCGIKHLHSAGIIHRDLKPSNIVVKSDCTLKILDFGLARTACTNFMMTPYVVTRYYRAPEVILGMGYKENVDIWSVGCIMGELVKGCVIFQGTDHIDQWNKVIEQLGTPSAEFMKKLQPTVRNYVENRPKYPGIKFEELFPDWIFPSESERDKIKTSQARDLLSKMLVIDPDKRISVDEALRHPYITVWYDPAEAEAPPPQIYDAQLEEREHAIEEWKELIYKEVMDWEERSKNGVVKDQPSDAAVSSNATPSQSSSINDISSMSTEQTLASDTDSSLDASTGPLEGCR
Procedure: as §1

JNK3 = target: T13, JNK3 (Homo sapiens, UniProt P53779); experiment: as above
T13 construct: purchased Discoverx (Kinomescan); host or cells: E. coli BL21-derived host (T7 phage) or HEK-293
T13 sequence (P53779 whole entry): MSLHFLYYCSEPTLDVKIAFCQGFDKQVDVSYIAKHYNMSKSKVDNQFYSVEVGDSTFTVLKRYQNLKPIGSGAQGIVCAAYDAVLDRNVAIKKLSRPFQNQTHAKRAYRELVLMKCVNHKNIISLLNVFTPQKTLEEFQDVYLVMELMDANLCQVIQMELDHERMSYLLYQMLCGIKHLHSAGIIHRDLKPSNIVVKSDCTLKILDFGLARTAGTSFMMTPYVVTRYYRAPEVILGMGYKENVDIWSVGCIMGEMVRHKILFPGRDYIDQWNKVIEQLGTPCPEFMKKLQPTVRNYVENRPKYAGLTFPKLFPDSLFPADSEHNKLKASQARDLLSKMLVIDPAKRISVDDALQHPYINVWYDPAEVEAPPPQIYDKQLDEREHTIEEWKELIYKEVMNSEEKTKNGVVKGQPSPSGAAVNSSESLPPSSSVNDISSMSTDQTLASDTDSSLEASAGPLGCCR
Procedure: as §1

KIT (D816V) = target: T14, KIT (D816V) (Homo sapiens, UniProt P10721, D816V); experiment: as above; conditions: MBZ at 10 μM; listed as 'KIT (D816V)', value in parentheses; read-out: Percent Control at 10 μM
T14 construct: purchased Discoverx (Kinomescan); host or cells: E. coli BL21-derived host (T7 phage) or HEK-293
Procedure: as §1

KIT = target: T15, KIT (Homo sapiens, UniProt P10721); experiment: as above; conditions: listed as 'KIT (D816V)'
T15 construct: purchased Discoverx (Kinomescan); host or cells: E. coli BL21-derived host (T7 phage) or HEK-293
Procedure: as §1

MET = target: T16, MET (Homo sapiens, UniProt P08581); experiment: as above; conditions: MBZ at 10 μM, lower = stronger hit, read-out: Percent Control at 10 μM
T16 construct: purchased Discoverx (Kinomescan); host or cells: E. coli BL21-derived host (T7 phage) or HEK-293
Procedure: as §1

P38-alpha = target: T17, P38-alpha (Homo sapiens, UniProt Q16539); experiment: as above
T17 construct: purchased Discoverx (Kinomescan); host or cells: E. coli BL21-derived host (T7 phage) or HEK-293
T17 sequence (Q16539 whole entry): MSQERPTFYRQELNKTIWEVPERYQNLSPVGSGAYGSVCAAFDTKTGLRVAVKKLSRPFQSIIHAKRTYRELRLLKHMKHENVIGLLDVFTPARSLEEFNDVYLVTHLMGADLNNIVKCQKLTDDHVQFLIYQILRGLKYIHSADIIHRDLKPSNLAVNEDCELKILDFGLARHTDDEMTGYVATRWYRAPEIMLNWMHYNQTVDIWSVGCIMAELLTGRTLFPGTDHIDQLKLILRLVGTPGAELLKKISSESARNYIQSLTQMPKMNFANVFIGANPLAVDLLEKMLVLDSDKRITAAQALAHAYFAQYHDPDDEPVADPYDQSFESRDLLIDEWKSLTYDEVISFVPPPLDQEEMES
Procedure: as §1

PDGFR-A = target: T18, PDGFR-A (Homo sapiens, UniProt P16234); experiment: as above
T18 construct: purchased Discoverx (Kinomescan); host or cells: E. coli BL21-derived host (T7 phage) or HEK-293
Procedure: as §1

PDGFR-B = target: T19, PDGFR-B (Homo sapiens, UniProt P09619); experiment: as above
T19 construct: purchased Discoverx (Kinomescan); host or cells: E. coli BL21-derived host (T7 phage) or HEK-293
T19 sequence (P09619 33-1106): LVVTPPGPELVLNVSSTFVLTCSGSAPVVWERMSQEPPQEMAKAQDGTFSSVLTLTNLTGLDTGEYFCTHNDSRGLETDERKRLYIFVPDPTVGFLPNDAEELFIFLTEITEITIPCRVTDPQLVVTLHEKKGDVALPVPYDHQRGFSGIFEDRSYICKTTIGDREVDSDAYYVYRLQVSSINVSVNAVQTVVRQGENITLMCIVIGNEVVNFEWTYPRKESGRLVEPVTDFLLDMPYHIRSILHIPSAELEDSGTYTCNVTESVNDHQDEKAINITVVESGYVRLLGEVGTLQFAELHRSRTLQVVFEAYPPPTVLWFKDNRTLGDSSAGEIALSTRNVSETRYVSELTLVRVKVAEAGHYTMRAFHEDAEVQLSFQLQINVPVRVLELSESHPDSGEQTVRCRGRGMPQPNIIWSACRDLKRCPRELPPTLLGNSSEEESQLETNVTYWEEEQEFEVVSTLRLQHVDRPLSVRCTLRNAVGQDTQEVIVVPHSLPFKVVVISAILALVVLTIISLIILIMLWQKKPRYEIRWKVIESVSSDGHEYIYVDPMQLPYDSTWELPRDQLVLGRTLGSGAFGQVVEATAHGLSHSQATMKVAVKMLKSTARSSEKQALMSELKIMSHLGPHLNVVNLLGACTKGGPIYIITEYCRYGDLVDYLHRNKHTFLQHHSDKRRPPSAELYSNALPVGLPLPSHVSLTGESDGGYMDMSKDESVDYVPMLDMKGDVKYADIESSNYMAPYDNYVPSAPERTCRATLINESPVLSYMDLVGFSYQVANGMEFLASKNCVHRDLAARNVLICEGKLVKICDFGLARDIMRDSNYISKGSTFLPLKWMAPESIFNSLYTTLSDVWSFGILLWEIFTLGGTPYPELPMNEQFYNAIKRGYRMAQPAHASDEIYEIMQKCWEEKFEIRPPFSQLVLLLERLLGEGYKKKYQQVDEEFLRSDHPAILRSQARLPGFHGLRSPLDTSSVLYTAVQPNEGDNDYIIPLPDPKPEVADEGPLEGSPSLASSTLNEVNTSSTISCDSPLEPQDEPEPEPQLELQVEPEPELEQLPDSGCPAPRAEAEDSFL
Procedure: as §1

PIK3CG = target: T20, PIK3CG (Homo sapiens, UniProt P48736); experiment: as above; conditions: MBZ at 10 μM, lower = stronger hit, read-out: Percent Control at 10 μM
T20 construct: purchased Discoverx (Kinomescan); host or cells: E. coli BL21-derived host (T7 phage) or HEK-293
Procedure: as §1

SRC = target: T21, SRC (Homo sapiens, UniProt P12931); experiment: as above; conditions: MBZ at 10 μM, lower = stronger hit, read-out: Percent Control at 10 μM
T21 construct: purchased Discoverx (Kinomescan); host or cells: E. coli BL21-derived host (T7 phage) or HEK-293
Procedure: as §1

ULK2 = target: T22, ULK2 (Homo sapiens, UniProt Q8IYT8); experiment: as above; conditions: MBZ at 10 μM, lower = stronger hit, read-out: Percent Control at 10 μM
T22 construct: purchased Discoverx (Kinomescan); host or cells: E. coli BL21-derived host (T7 phage) or HEK-293
Procedure: as §1

VEGFR-2 = target: T23, VEGFR-2 (Homo sapiens, UniProt P35968); experiment: as above
T23 construct: purchased Discoverx (Kinomescan); host or cells: E. coli BL21-derived host (T7 phage) or HEK-293
T23 sequence (P35968 20-1356): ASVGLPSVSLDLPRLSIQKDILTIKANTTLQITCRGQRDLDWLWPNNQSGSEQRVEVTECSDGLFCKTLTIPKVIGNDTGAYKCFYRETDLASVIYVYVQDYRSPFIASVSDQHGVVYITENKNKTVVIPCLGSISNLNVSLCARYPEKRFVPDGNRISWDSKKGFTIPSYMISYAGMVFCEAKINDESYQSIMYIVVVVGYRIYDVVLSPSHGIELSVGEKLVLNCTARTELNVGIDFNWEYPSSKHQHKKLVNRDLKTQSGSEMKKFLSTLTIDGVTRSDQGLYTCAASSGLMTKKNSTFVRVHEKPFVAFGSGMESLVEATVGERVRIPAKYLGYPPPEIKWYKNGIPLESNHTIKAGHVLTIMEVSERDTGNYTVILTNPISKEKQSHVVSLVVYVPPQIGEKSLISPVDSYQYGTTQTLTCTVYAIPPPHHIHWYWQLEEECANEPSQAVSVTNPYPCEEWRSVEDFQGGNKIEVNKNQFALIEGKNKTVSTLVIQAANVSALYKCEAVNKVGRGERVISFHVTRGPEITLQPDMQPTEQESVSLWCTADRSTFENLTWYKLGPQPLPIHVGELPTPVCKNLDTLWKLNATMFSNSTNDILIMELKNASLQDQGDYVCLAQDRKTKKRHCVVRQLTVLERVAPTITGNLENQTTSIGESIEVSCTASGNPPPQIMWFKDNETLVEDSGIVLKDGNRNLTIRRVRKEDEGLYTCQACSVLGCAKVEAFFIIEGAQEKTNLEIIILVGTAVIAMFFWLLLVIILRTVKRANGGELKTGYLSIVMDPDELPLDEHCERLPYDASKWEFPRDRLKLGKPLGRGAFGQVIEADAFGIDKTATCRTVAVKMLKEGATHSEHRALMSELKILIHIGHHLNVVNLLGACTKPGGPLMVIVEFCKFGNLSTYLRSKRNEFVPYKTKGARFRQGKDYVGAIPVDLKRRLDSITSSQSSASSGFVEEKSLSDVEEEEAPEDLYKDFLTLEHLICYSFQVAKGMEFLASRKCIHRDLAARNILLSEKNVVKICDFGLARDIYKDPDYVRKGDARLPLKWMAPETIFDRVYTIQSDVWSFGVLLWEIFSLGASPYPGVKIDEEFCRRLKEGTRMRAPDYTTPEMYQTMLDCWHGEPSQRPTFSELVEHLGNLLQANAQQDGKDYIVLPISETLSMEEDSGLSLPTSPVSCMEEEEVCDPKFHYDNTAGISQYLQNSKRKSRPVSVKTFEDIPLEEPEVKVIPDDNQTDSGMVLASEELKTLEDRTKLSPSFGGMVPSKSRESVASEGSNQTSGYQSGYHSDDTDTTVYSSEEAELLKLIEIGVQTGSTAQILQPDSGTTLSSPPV
Procedure: Kinase-tagged T7 phage strains were grown in parallel in 24-well blocks in an E. coli host derived from the BL21 strain. […] The remaining kinases were produced in HEK-293 cells and subsequently tagged with DNA for qPCR detection. […] The liganded beads were blocked with excess biotin and washed with blocking buffer (SeaBlock (Pierce), 1% BSA, 0.05% Tween 20, 1 mM DTT) to remove unbound ligand and to reduce non-specific phage binding. […] All reactions were performed in polypropylene 384-well plates in a final volume of 0.04 ml. […] The kinase concentration in the eluates was measured by qPCR.
An 11-point 3-fold serial dilution of each test compound was prepared in 100% DMSO at 100× final test concentration and subsequently diluted to 1× in the assay (final DMSO concentration=1%).

hookworm tubulin = conditions: background statement; cited from earlier work
mammalian tubulin = conditions: background statement; cited from earlier work
[3] = 11-point dose response, read-out: Binding Affinity (Kd)
[4] = MBZ at 10 μM, lower = stronger hit, read-out: Percent Control at 10 μM

remaining binding at 10 µM [1]: 2.2% | remaining binding at 10 µM [2]: 3.2% | remaining binding at 10 µM (ABL1-nonphosphorylated): 2% | pKd (ABL1-phosphorylated; [3]): 6.92 | remaining binding at 10 µM (ABL1-phosphorylated; [4]): 0.9% | pKd (CDK7; [3]): 6.41 | remaining binding at 10 µM (CDK7; [4]): 11% | remaining binding at 10 µM (CSNK1D): 36% | remaining binding at 10 µM (DYRK1A): 34% | pKd (DYRK1B; [3]): 6.47 | remaining binding at 10 µM (DYRK1B; [4]): 5.6% | remaining binding at 10 µM (GSK3B): 35% | remaining binding at 10 µM (JAK3): 29% | remaining binding at 10 µM (JNK1): 14% | pKd (JNK2; [3]): 5.96 | remaining binding at 10 µM (JNK2; [4]): 9.6% | pKd (JNK3; [3]): 6.39 | remaining binding at 10 µM (JNK3; [4]): 3% | remaining binding at 10 µM (KIT (D816V)): 33% | remaining binding at 10 µM (KIT; MBZ at 10 μM, value outside parentheses, read-out: Percent Control at 10 μM): 7.4% | pKd (KIT; [3]): 6.12 | remaining binding at 10 µM (MET): 32% | pKd (P38-alpha; [3]): 5.78 | remaining binding at 10 µM (P38-alpha; [4]): 17% | pKd (PDGFR-A; [3]): 6.09 | remaining binding at 10 µM (PDGFR-A; [4]): 7.8% | pKd (PDGFR-B; [3]): 6.18 | remaining binding at 10 µM (PDGFR-B; [4]): 3.2% | remaining binding at 10 µM (PIK3CG): 18% | remaining binding at 10 µM (SRC): 34% | remaining binding at 10 µM (ULK2): 30% | pKd (VEGFR-2; [3]): 5.44 | remaining binding at 10 µM (VEGFR-2; [4]): 30%
SMILES: COC(=O)Nc1nc2ccc(C(=O)c3ccccc3)cc2[nH]1 [MBZ, mebendazole]
inhibition of hookworm tubulin (hookworm tubulin): potent nanomolar inhibition | potency on mammalian tubulin relative to hookworm tubulin (fold less) (mammalian tubulin): 1000 ×
